Experimental data from ChEMBL document CHEMBL5316301, “Dual Nicotinamide Phosphoribosyltransferase (NAMPT) and Indoleamine 2,3-Dioxygenase 1 (IDO1) Inhibitors for the Treatment of Drug-Resistant Nonsmall-Cell Lung Cancer” (J Med Chem, 2023).
Blank lines part the entries; values can stand above or below the compound they belong to. The source made the active and inactive calls. The rule behind the calls is not given here.

Columns and labels:
A549 [1] = assay: Antitumor activity against NAMPT inhibitor-resistant A549 cells xenografted in athymic nude mouse assessed as tumor growth inhibition at 2 mg/kg, iv bid measured on day 21 by caliper method; assay type: functional, Homo sapiens; conditions: A549, 504 h, time 21 day, read-out: TGI
A549 [2] = assay: Antiproliferative activity against NAMPT inhibitor-resistant A549 cells assessed as reduction in cell viability measured for 48 hrs by CCK-8 assay; conditions: Homo sapiens
[3] = target: Nicotinamide phosphoribosyltransferase (Homo sapiens, UniProt P43490); assay: Inhibition of recombinant NAMPT (unknown origin) incubated for 60 mins by SpectraMax microplate reader analysis
[4] = target: T1, Indoleamine 2,3-dioxygenase 1 (Homo sapiens, UniProt P14902); assay: Inhibition of human recombinant IDO1 assessed as reduction in N-formylkynurenine formation using L-tryptophan as substrate preincubated for 30 mins followed by substrate addition and measured after 10 mins by SpectraMax microplate reader analysis
[5] = target: T1, Indoleamine 2,3-dioxygenase 1; assay: Inhibition of human recombinant IDO1 in human HeLa cells assessed as reduction in N-formylkynurenine formation using L-tryptophan as substrate preincubated for 24 hrs followed by substrate addition and measured after 30 mins; assay type: cell-based
A549 [6] = assay: Antiproliferative activity against NAMPT inhibitor-resistant A549 cells assessed as reduction in cell viability measured for 48 hrs in presence of epacadostat by CCK-8 assay; assay type: functional, cell-based; conditions: Homo sapiens, A549, 48 h
A549 [7] = assay: cells; conditions: Homo sapiens, A549, 48 h
A549 [8] = assay: Antiproliferative activity against NAMPT inhibitor-resistant A549 cells assessed as reduction in cell viability in presence of NMN and L-tryptophan measured for 48 hrs by CCK-8 assay; assay type: functional, cell-based; conditions: Homo sapiens
A549 [9] = assay: Antiproliferative activity against NAMPT inhibitor-resistant A549 cells assessed as reduction in cell viability in presence of NMN/L-tryptophan/QA measured for 48 hrs by CCK-8 assay; assay type: functional, cell-based; conditions: Homo sapiens
A549 [10] = assay: Inhibition of colony formation in NAMPT inhibitor-resistant A549 cells […] by crystal violet staining analysis; assay type: functional, cell-based; conditions: Homo sapiens, dose 5-15 µM
A549 [11] = assay: Downregulation of NAD+ level in NAMPT inhibitor-resistant A549 cells at 10 uM measured for 24 hrs; assay type: functional, cell-based; conditions: Homo sapiens
A549 [12] = assay: Downregulation of NAD+ level in NAMPT inhibitor-resistant A549 cells at 10 uM measured for 24 hrs in presence of NMN/L-tryptophan/QA; assay type: functional, cell-based; conditions: Homo sapiens
A549 [13] = assay: Induction of ROS production in NAMPT inhibitor-resistant A549 cells assessed as ROS accumulation incubated for 24 hrs by DCFH-DA staining based flow cytometry analysis; assay type: functional, cell-based; conditions: Homo sapiens, dose 5-15 µM
A549 [14] = assay: Induction of ROS production in NAMPT inhibitor-resistant A549 cells assessed as ROS accumulation at 5 to 15 uM incubated for 24 hrs in presence of NAC by DCFH-DA staining based flow cytometry analysis; assay type: functional, cell-based; conditions: Homo sapiens, dose 5-15 µM
A549 [15] = assay: Antiproliferative activity against NAMPT inhibitor-resistant A549 cells assessed as reduction in cell viability in presence of NAC measured for 48 hrs by CCK-8 assay; assay type: functional, cell-based; conditions: Homo sapiens
Danio rerio [16] = species on record: Danio rerio; assay: Induction of ROS production in zebra fish embryos assessed as increase in green fluorescence at 10 uM measured for 24 hrs by DCFH-DA staining based inverted microscopic analysis; assay type: functional
Danio rerio [17] = species on record: Danio rerio; assay: Induction of ROS production in zebra fish embryos assessed as increase in green fluorescence at 5 uM measured for 24 hrs by DCFH-DA staining based inverted microscopic analysis; assay type: functional
A549 [18] = assay: Antimigratory activity against NAMPT inhibitor-resistant A549 cells assessed as inhibition of cell migration measured after 24 hrs by crystal violet staining based microscopic analysis; assay type: functional; conditions: Homo sapiens, dose 5-15 µM
A549 [19] = assay: Antimigratory activity against NAMPT inhibitor-resistant A549 cells assessed as decrease in Snail expression incubated 24 hrs by Western blot analysis; assay type: functional, cell-based; conditions: Homo sapiens, dose 5-15 µM
A549 [20] = assay: Antimigratory activity against NAMPT inhibitor-resistant A549 cells assessed as decrease in slug expression incubated 24 hrs by Western blot analysis; assay type: functional, cell-based; conditions: Homo sapiens, dose 5-15 µM
A549 [21] = assay: Downregulation of Smad3 expression in NAMPT inhibitor-resistant A549 cells at 5 to 15 uM measured for 24 hrs; assay type: functional, cell-based; conditions: Homo sapiens, dose 5-15 µM
A549 [22] = assay: Effect on intracellular lipid level in NAMPT inhibitor-resistant A549 cells measured for 24 hrs by oil red staining based microscopic analysis; assay type: functional, cell-based; conditions: Homo sapiens
A549 [23] = assay: Effect on intracellular lipid level in NAMPT inhibitor-resistant A549 cells measured for 24 hrs by nile red staining based microscopic analysis; assay type: functional, cell-based; conditions: Homo sapiens
A549 [24] = assay: Downregulation of NAMPT expression in NAMPT NAMPT inhibitor-resistant A549 cells measured for 24 hrs by Western blot analysis; assay type: functional, cell-based; conditions: Homo sapiens, dose 5-10 µM
A549 [25] = assay: Downregulation of IDO1 expression in NAMPT inhibitor-resistant A549 cells measured for 24 hrs by Western blot analysis; assay type: functional, cell-based; conditions: Homo sapiens, dose 5-10 µM
A549 [26] = assay: Downregulation of IDO1 expression in NAMPT inhibitor-resistant A549 cells measured for 12 hrs in presence of cycloheximide by Western blot analysis; assay type: functional, cell-based; conditions: Homo sapiens
A549 [27] = assay: Downregulation of IDO1 expression in NAMPT inhibitor-resistant A549 cells measured for 12 hrs in presence of MG-132 by Western blot analysis; assay type: functional, cell-based; conditions: Homo sapiens
A549 [28] = assay: Antimigratory activity against NAMPT inhibitor-resistant A549 cells assessed as reduction in cell migration at 5 uM incubated for 24 hrs in presence of taxol by inverted microscopic analysis; assay type: functional, cell-based; conditions: Homo sapiens
[29] = Oral bioavailability in Sprague-Dawley rat at 25 mg/kg; assay type: ADME, organism-based; conditions: in vivo
[30] = AUC in Sprague-Dawley rat at 25 mg/kg, po; assay type: ADME, organism-based; parameters: dose 25 mg/kg, route po; conditions: in vivo
[31] = Clearance in Sprague-Dawley rat at 5 mg/kg, iv; assay type: ADME, organism-based; conditions: in vivo
[32] = Apparent volume of distribution in Sprague-Dawley rat at 5 mg/kg, iv; assay type: ADME, organism-based; conditions: in vivo, read-out: Vz
A549 [33] = assay: Antitumor activity against NAMPT inhibitor-resistant A549 cells xenografted in athymic nude mouse assessed as tumor growth inhibition at 50 mg/kg, po bid measured on day 21 by caliper method; assay type: functional, Homo sapiens; conditions: A549, 504 h, time 21 day, read-out: TGI
A549 [34] = assay: Antitumor activity against NAMPT inhibitor-resistant A549 cells xenografted in athymic nude mouse assessed as tumor growth inhibition at 100 mg/kg, po bid measured on day 21 by caliper method; assay type: functional, Homo sapiens; conditions: A549, 504 h, time 21 day, read-out: TGI
A549 [35] = assay: Antitumor activity against NAMPT inhibitor-resistant A549 cells xenografted in athymic nude mouse assessed as tumor growth inhibition at 200 mg/kg, po bid measured on day 21 by caliper method; assay type: functional, Homo sapiens; conditions: A549, 504 h, time 21 day, read-out: TGI
A549 [36] = assay: Antitumor activity against NAMPT inhibitor-resistant A549 cells xenografted in athymic nude mouse assessed as tumor growth inhibition at 100 mg/kg, po bid measured on day 21 in presence of taxol by caliper method; assay type: functional, Homo sapiens; conditions: A549, 504 h, time 21 day, read-out: TGI
A549 [37] = assay: Antitumor activity against NAMPT inhibitor-resistant A549 cells xenografted in athymic nude mouse assessed as reduction in tumor size at 50 to 200 mg/kg, po bid measured on day 21 in presence of taxol by caliper method; assay type: functional, organism-based; conditions: Homo sapiens, dose 50-200 mg/kg, time 21.0 day
[38] = Toxicity in athymic nude mouse xenografted with NAMPT inhibitor-resistant A549 cells assessed as change in body weight at 50 to 200 mg/kg, po measured on day 21; assay type: organism-based; conditions: in vivo, 504 h, dose 50-200 mg/kg, time 21 day
[39] = Toxicity in athymic nude mouse xenografted with NAMPT inhibitor-resistant A549 cells assessed as mortality at 50 to 200 mg/kg, po measured on day 21; assay type: organism-based; conditions: in vivo, 504 h, dose 50-200 mg/kg, time 21 day
A549 [40] = assay: Antitumor activity against NAMPT inhibitor-resistant A549 cells xenografted in athymic nude mouse at 100 to 200 mg/kg, po measured for 14 days in presence of epacadostat; assay type: functional, organism-based; conditions: Homo sapiens, dose 100-200 mg/kg, time 14.0 day
A549 [41] = assay: Antitumor activity against NAMPT inhibitor-resistant A549 cells xenografted in athymic nude mouse at 100 to 200 mg/kg, po measured for 14 days in presence of FK866; assay type: functional, organism-based; conditions: Homo sapiens, dose 100-200 mg/kg, time 14.0 day
A549 [42] = assay: Antitumor activity against NAMPT inhibitor-resistant A549 cells xenografted in athymic nude mouse at 100 mg/kg, po measured for 14 days in presence of epacadostat; assay type: functional, organism-based; conditions: Homo sapiens, time 14.0 day
A549 [43] = assay: Antitumor activity against NAMPT inhibitor-resistant A549 cells xenografted in athymic nude mouse at 100 mg/kg, po measured for 14 days in presence of FK866; assay type: functional, organism-based; conditions: Homo sapiens, time 14.0 day

T1 sequence (P14902 whole entry): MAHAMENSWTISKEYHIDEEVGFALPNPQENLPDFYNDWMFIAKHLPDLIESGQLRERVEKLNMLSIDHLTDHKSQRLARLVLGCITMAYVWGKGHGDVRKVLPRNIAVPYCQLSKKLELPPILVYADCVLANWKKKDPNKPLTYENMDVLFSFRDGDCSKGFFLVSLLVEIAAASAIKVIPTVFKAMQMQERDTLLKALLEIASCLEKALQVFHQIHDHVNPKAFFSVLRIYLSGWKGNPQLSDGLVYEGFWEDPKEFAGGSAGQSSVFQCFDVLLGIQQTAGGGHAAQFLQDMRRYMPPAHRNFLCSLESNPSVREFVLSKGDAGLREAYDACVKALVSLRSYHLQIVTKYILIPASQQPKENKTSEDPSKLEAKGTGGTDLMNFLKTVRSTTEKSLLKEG
Nicotinamide phosphoribosyltransferase, sequence (P43490 whole entry): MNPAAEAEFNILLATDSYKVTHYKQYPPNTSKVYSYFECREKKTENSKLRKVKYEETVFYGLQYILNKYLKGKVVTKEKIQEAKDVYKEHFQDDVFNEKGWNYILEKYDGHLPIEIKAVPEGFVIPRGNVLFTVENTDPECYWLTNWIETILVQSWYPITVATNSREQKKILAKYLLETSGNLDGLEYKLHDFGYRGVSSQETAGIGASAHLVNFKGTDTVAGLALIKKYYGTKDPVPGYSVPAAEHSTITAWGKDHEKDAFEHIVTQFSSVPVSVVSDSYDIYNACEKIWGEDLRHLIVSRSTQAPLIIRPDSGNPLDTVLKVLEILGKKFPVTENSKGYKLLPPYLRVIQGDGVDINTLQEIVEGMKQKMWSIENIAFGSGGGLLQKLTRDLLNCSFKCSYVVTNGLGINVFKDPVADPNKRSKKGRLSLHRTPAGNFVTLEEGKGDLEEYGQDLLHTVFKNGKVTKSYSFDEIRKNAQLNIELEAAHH

IC50 [4]: > 1 µM
SMILES: O=C(c1ccc2nccn2c1)N1CCC(CCNc2nonc2/C(=N/O)Nc2ccc(F)c(Br)c2)CC1

IC50 [4]: 0.858 µM
IC50 [5]: 0.67 µM
SMILES: O=C(NCCCCCNc1nonc1/C(=N/O)Nc1ccc(F)c(Br)c1)c1ccc2nccn2c1

IC50 [4]: 0.66 µM
IC50 [5]: 0.52 µM
SMILES: O=C(NCCCCNc1nonc1/C(=N/O)Nc1ccc(F)c(Br)c1)c1ccc2nccn2c1

Second part, the compound before the results:

SMILES: CC(=O)O[C@H]1C(=O)[C@@]2(C)[C@H]([C@H](OC(=O)c3ccccc3)[C@]3(O)C[C@H](OC(=O)[C@H](O)[C@@H](NC(=O)c4ccccc4)c4ccccc4)C(C)=C1C3(C)C)[C@]1(OC(C)=O)CO[C@@H]1C[C@@H]2O [PACLITAXEL]
inhibition in vivo at 2 mg/kg (A549 [1]): 20.2%
Activity (A549 [2]): Active

SMILES: O=C(CCCNc1nonc1/C(=N/O)Nc1ccc(F)c(Br)c1)Nc1ccc(CNC(=O)c2ccc3nccn3c2)cc1
IC50 [3]: > 10 µM
IC50 [4]: 0.73 µM
IC50 [5]: 0.663 µM

SMILES: O=C(CCCCNc1nonc1/C(=N/O)Nc1ccc(F)c(Br)c1)Nc1ccc(CNC(=O)c2ccc3nccn3c2)cc1
IC50 [4]: 0.75 µM
IC50 [5]: 0.649 µM

SMILES: O=C(/C=C/c1cccnc1)NCCCCC1CCN(C(=O)c2ccccc2)CC1 [DAPORINAD]
IC50 (A549 [6]): 34.5 µM
IC50 (A549 [7]): 52.1 µM

SMILES: O=C(NCCCCCCNc1nonc1/C(=N/O)Nc1ccc(F)c(Br)c1)c1ccc2nccn2c1
IC50 [3]: 0.0577 µM
IC50 [4]: 0.233 µM
IC50 [5]: 0.16 µM
Activity (A549 [8]): inactive
Activity (A549 [9]): inactive
inhibition (A549 [10]): Dose-Dependent Effect
Activity (A549 [11]): Active
Activity (A549 [12]): Active
Activity (A549 [13]): Dose-Dependent Effect
Activity (A549 [14]): inactive
Activity (A549 [15]): inactive
Activity (Danio rerio [16]): Active
Activity (Danio rerio [17]): Active
Activity (A549 [18]): Dose-Dependent Effect
Activity (A549 [19]): Dose-Dependent Effect
Activity (A549 [20]): Dose-Dependent Effect
Activity (A549 [21]): Active
Activity (A549 [22]): Active
Activity (A549 [23]): Active
Activity (A549 [24]): Dose-Dependent Effect
Activity (A549 [25]): Dose-Dependent Effect
Activity (A549 [26]): Active
Activity (A549 [27]): inactive
Activity (A549 [28]): Active
bioavailability [29]: 52.5%
AUC [30]: 2530 ng·h/mL
clearance [31]: 106 mL/min/kg
Vd [32]: 11.5 L/kg
inhibition in vivo at 50 mg/kg (A549 [33]): 24.6%
inhibition in vivo at 100 mg/kg (A549 [34]): 40.2%
inhibition in vivo at 200 mg/kg (A549 [35]): 53.8%
inhibition in vivo at 100 mg/kg (A549 [36]): 64.3%
Activity (A549 [37]): Active
Activity [38]: Non-Toxic
Activity [39]: Non-Toxic
Activity (A549 [40]): Active
Activity (A549 [41]): Active
Activity (A549 [42]): Active
Activity (A549 [43]): Active
IC50 (A549 [7]): 5.35 µM
